Tests used:
[1] = test system: human HepG2 liver cells; assay: Intracellular triglyceride content in HepG2 cells with palmitoleic acid (biochemical kit); format: cell-based; settings: HepG2, 1.6 mM palmitoleic acid, 48 hours, 0.1 μM compound, vs DMSO; FIG. 10A
Method: A series of in vitro experiments were first carried out with various human hepatocyte cultures. For example, human HepG2 liver cells were incubated with 1.6 mM palmitoleic acid in EMEM medium for 48 hours in the presence of 0.1 μM Compound 14-3 or control vehicle, DMSO. After 48 hours, cells were collected and the intracellular triglyceride content was measured by a biochemical kit (Biovision, Mountain View, CA) as described in Derdak et al. J Hepatol. 2013; 58(4):785-91.

[2] = test system: hypothalamic molecular mediators of hunger and satiety signaling (AgRP, NPY, POMC); assay: Quantitative real-time PCR of hypothalamic hunger and satiety genes; format: in vivo; settings: HFD-fed mice, FIG. 2B
Method: Referring now to FIG. 2B, hypothalamic molecular mediators of hunger and satiety signaling in hypothalamus were analyzed using quantitative real-time PCR with commercially available probes (Thermo Fisher Scientific Inc., Waltham, MA). AgRP and NPY are hunger-inducing signals, while POMC is powerful satiety-inducing signal in the hypothalamus. […] This was in agreement with the food intake information that we collected over the course of the experiment. […] Therefore, it was concluded that the expression levels of hypothalamic hunger or satiety genes cannot explain the marked weight loss of the Compound-14-3-treated mice on HFD and that decrease in satiety was secondary to prolonged negative energy balance in the same group.

[3] = test system: genes involved in lipid transport and degradation, beta-oxidation, de novo lipogenesis, and insulin sensitivity (RORA, ACADM, ACOX1, MLYCD, PEPCK); assay: Gene expression in visceral fat (eWAT); format: in vivo; settings: HFD-fed mice
Description: To get a more detailed insight into the metabolic changes caused by the Compound 14-3 treatment in the visceral fat (eWAT), the expression of genes involved in lipid transport and degradation, beta-oxidation, de novo lipogenesis, and insulin sensitivity were examined.
Acyl-Coenzyme A dehydrogenase, C-4 to C-12 straight chain (ACADM, FIG. 6B) is known to be important for the degradation of medium chain fatty acids.
Similarly, malonyl CoA decarboxylase (MLYCD, FIG. 6D) has been induced by the Compound 14-3 treatment. This event is linked to decreased malonyl CoA synthesis and the suppression of de novo lipogenesis by Compound 14-3.

[4] = test system: liver; assay: Liver size, appearance and liver/body weight ratio (NAFLD) in HFD-fed mice; format: in vivo
Description: The enlarged liver appeared pale yellow consistent with fatty metamorphosis. […] The beneficial effect on liver size and appearance was consistent as a part of overall improvement in metabolic properties after Compound 14-3 treatment.

[5] = test system: TGF-β; assay: TGF-β gene expression in eWAT; format: in vivo; settings: HFD-fed mice; FIG. 4C
Description: Since obesity has been linked to low-grade inflammation in the adipose tissue, we consequently observed increased TGF-β expression in the epididymal fat pads of the HFD-fed mice.

SMILES: CCN(CC)CCNC(=O)c1c(C)[nH]c(/C=C2\C(=O)Nc3ccc(-c4csc(-c5ccccc5)n4)cc32)c1C [Compound 14-3]
- palmitoleic acid-induced increase of intracellular triglyceride content [1]: markedly suppressed
- satiety-inducing POMC expression in hypothalamus ([2]; vs corresponding control group): significant decrease
- expression of appetite-inducing genes (AgRP, NPY) in hypothalamus ([2]; vs vehicle): no significant difference
- RORA expression in eWAT ([3]; FIG. 6A): significantly increased
- ACADM gene expression in eWAT ([3]; FIG. 6B): Increased
- ACOX1 expression in eWAT ([3]; FIG. 6C): increased
- MLYCD expression in eWAT ([3]; FIG. 6D): induced
- PEPCK gene expression in eWAT ([3]; FIG. 6E): comparable to that of the control-fed mice
- NAFLD ([4]; FIG. 8A): marked improvement
- size of the liver ([4]; FIG. 8A): markedly decreased
- liver/body weight ratio ([4]; FIG. 8B): lower
- TGF-β abundance (gene expression) in eWAT [5]: decreased

Source: patent publication US12390460B2, “Treatment for obesity” (1GLOBE BIOMEDICAL CO., LTD., priority 2018, dated 2025)
